The assay has as its target T1, CDK4/cyclin D3 (Homo sapiens, UniProt P11802).
T1 construct: made in house; host or cells: insect cells (baculovirus co-infection)
Put plainly: Inhibition of CDK4/Cyclin D retinoblastoma kinase activity.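 For % Inhib CDK4/D @ 1 μM: relative to DMSO control wells without compound minus no-enzyme background.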 The settings on record: for inhibition at 0.1 µM / % Inhib CDK4/D @ 0.1 μM: test compound at 0.1 μM; for inhibition at 0.1 µM: read-out: % Inhib CDK4/D @ 0.1 μM; for inhibition at 1 µM / % Inhib CDK4/D @ 1 μM: test compound at 1 μM (head line shifted: 'mM' printed beside 'Structure'); for inhibition at 1 µM: read-out: % Inhib CDK4/D @ 1 μM; for inhibition at 0.03 µM / % Inhib CDK4/D @ 0.03: test compound at 0.03 (unit cell empty, head line shifted; μM); for inhibition at 0.03 µM: read-out: % Inhib CDK4/D @ 0.03. The format is biochemical. The method in brief: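 Human CDK4 with truncated cyclin D3 (1-264) from baculovirus-infected insect cells, 5 nM, phosphorylating His-tagged Rb fragment (386-928) with 25 μM [32P/33P]ATP in pH 7.4 HEPES/MgCl2, 2% DMSO, 30° C., 20 min (60 min for tight binders). Filter capture, phosphorimager; apparent Ki from competitive or tight-binding competitive fits.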

T1 sequence (P11802 whole entry): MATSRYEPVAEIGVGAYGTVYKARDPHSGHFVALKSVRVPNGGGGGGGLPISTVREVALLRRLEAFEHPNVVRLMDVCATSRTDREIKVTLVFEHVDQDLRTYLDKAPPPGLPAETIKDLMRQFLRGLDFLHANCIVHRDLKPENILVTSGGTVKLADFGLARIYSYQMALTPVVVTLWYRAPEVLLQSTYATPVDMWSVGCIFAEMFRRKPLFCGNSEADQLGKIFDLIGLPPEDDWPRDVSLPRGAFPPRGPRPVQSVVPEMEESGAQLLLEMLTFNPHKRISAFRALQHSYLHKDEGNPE
T1 sequence (P30281 1-264 partner limits assumed): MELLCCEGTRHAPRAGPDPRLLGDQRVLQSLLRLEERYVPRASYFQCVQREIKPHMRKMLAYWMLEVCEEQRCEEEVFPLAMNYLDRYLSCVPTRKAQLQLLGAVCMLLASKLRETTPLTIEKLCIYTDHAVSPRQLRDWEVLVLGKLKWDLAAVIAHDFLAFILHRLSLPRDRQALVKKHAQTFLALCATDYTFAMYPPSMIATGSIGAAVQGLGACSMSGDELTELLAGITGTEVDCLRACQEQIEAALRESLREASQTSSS

For the compound `CC(CN(C)C)C[S+]([O-])c1cccc(Nc2nc(N)c(C(=O)c3c(Cl)cccc3Cl)s2)c1` (stereo not drawn) [DD(123)], the inhibition at 0.1 µM was found to be 34%, the inhibition at 1 µM is 51.2% and the inhibition at 0.03 µM was 8%.
Regarding `CCN(CC)C(=O)CS(=O)(=O)c1ccc(Nc2nc(N)c(C(=O)c3c(Cl)cccc3Cl)s2)cc1` [DD(161)], the “% Inhib CDK4/D @ 0.1 μM” value is −7%, the inhibition at 1 µM came to 9.1% and the “% Inhib CDK4/D @ 0.03” value is −9.2%.
As to `C=CCCSc1cccc(Nc2nc(N)c(C(=O)c3c(Cl)cccc3Cl)s2)c1` [DD(46)], the inhibition at 0.1 µM was found to be 39%, the inhibition at 1 µM turned out to be 50.7% and the inhibition at 0.03 µM was determined as 18%.
Regarding `Nc1nc(Nc2cccc(SCC3CNC(=O)O3)c2)sc1C(=O)c1c(Cl)cccc1Cl` (stereo not drawn) [DD(49)], the inhibition at 0.1 µM was found to be 19%, the inhibition at 1 µM turned out to be 54.2% and the inhibition at 0.03 µM came out at 12%.
In the same order, the values of `NC(=O)C[S+]([O-])c1ccc(Nc2nc(N)c(C(=O)c3c(Cl)cccc3Cl)s2)cc1` (stereo not drawn) [DD(101)] are 78%, 80.4% and 38%.
On to `CC(C)=CCSc1cccc(Nc2nc(N)c(C(=O)c3c(Cl)cccc3Cl)s2)c1` [DD(64)], for which the inhibition at 0.1 µM worked out at 27%, the inhibition at 1 µM came to 22.1% and the inhibition at 0.03 µM was -11%.
With `Nc1nc(Nc2ccc(S(=O)(=O)CC3CO3)cc2)sc1C(=O)c1c(Cl)cccc1Cl` (stereo not drawn) [DD(172)], the inhibition at 0.1 µM is 24%, the “% Inhib CDK4/D @ 1 μM” value worked out at 24.9% and the “% Inhib CDK4/D @ 0.03” value is on record as −26%.
Consider `CC(C)(CO)C[S+]([O-])c1ccc(Nc2nc(N)c(C(=O)c3c(Cl)cccc3Cl)s2)cc1` (stereo not drawn) [DD(120)], for which the inhibition at 0.1 µM came to 29%, the inhibition at 1 µM was 57.1% and the inhibition at 0.03 µM is -34%.
Turning to `Nc1nc(Nc2cccc(SCCN3CCCC3)c2)sc1C(=O)c1c(Cl)cccc1Cl` [DD(47)], the inhibition at 0.1 µM stood at 7.3%, the inhibition at 1 µM was 62.9% and the inhibition at 0.03 µM came out at 20%.
The like results for `Nc1nc(Nc2cccc([S+]([O-])CC3CNC(=O)O3)c2)sc1C(=O)c1c(Cl)cccc1Cl` (stereo not drawn) [DD(129)] were, in that order, 33%, 33.3% and 19%.
The like results for `CC(CSc1ccc(Nc2nc(N)c(C(=O)c3c(Cl)cccc3Cl)s2)cc1)CN(C)C` (stereo not drawn) [DD(3)] were, in that order, 0.2%, 43.6% and 8.1%.
`CN(C)CC[S+]([O-])c1ccc(Nc2nc(N)c(C(=O)c3c(Cl)cccc3Cl)s2)cc1` (stereo not drawn) [DD(112)]: the inhibition at 0.1 µM is 27%, the inhibition at 1 µM was determined as 63.2% and the inhibition at 0.03 µM was -4.9%.
In the case of `CC(C)(CO)C[S+]([O-])c1cccc(Nc2nc(N)c(C(=O)c3c(Cl)cccc3Cl)s2)c1` (stereo not drawn) [DD(160)], the inhibition at 0.1 µM turned out to be 19%, the inhibition at 1 µM worked out at 49% and the inhibition at 0.03 µM came out at 8.1%.
Regarding `Nc1nc(Nc2ccc(S(=O)(=O)CCCO)cc2)sc1C(=O)c1c(Cl)cccc1Cl` [DD(165)], the “% Inhib CDK4/D @ 0.1 μM” value was determined as 10%, the “% Inhib CDK4/D @ 1 μM” value was 34.3% and the “% Inhib CDK4/D @ 0.03” value is listed as −1.8%.
As to `CN(C)CCC[S+]([O-])c1ccc(Nc2nc(N)c(C(=O)c3c(Cl)cccc3Cl)s2)cc1` (stereo not drawn) [DD(90)], the inhibition at 0.1 µM was 44%, the inhibition at 1 µM was 70.2% and the inhibition at 0.03 µM was -4.9%.
In the same order, the values of `Cc1noc(C)c1CSc1cccc(Nc2nc(N)c(C(=O)c3c(Cl)cccc3Cl)s2)c1` [DD(42)] are 41%, 63.7% and 29%.
For the compound `CN1CCCC1CCS(=O)(=O)c1ccc(Nc2nc(N)c(C(=O)c3c(Cl)cccc3Cl)s2)cc1` (stereo not drawn) [DD(219)], the “% Inhib CDK4/D @ 0.1 μM” value turned out to be 22%, the “% Inhib CDK4/D @ 1 μM” value worked out at 19.5% and the “% Inhib CDK4/D @ 0.03” value came out at 3.3%.
As for `CCOCCS(=O)(=O)c1ccc(Nc2nc(N)c(C(=O)c3c(Cl)cccc3Cl)s2)cc1` [DD(233)], the inhibition at 0.1 µM is 11%, the inhibition at 1 µM is -12% and the inhibition at 0.03 µM stood at 8.4%.
On to `COC(=O)/C=C/CS(=O)(=O)c1ccc(Nc2nc(N)c(C(=O)c3c(Cl)cccc3Cl)s2)cc1` [DD(203)], for which the “% Inhib CDK4/D @ 0.1 μM” value worked out at 37%, the “% Inhib CDK4/D @ 1 μM” value amounted to 33.7% and the “% Inhib CDK4/D @ 0.03” value is reported as −5.5%.
`CC(C)OC(=O)CSc1ccc(Nc2nc(N)c(C(=O)c3c(Cl)cccc3Cl)s2)cc1` [DD(23)]: the inhibition at 0.1 µM turned out to be 37%, the inhibition at 1 µM was found to be 72.1% and the inhibition at 0.03 µM came out at 19%.
As for `Nc1nc(Nc2cccc(SCc3ccncc3)c2)sc1C(=O)c1c(Cl)cccc1Cl` [DD(75)], the inhibition at 0.1 µM was found to be 29%, the inhibition at 1 µM stood at 66.5% and the inhibition at 0.03 µM amounted to 18%.
Consider `Nc1nc(Nc2ccc([S+]([O-])CCCO)cc2)sc1C(=O)c1c(Cl)cccc1Cl` (stereo not drawn) [DD(85)], for which the inhibition at 0.1 µM worked out at 49%, the inhibition at 1 µM was determined as 76.8% and the inhibition at 0.03 µM is 3.7%.
Consider `Nc1nc(Nc2ccc(SCc3ccncc3)cc2)sc1C(=O)c1c(Cl)cccc1Cl` [DD(35)], for which the inhibition at 0.1 µM was found to be 42%, the inhibition at 1 µM came out at 76.8% and the inhibition at 0.03 µM was found to be 12%.
Regarding `CC(C)CCSc1cccc(Nc2nc(N)c(C(=O)c3c(Cl)cccc3Cl)s2)c1` [DD(53)], the inhibition at 0.1 µM was 14%, the inhibition at 1 µM stood at 31.5% and the inhibition at 0.03 µM was determined as 5.6%.
The like results for `CCOCCSc1ccc(Nc2nc(N)c(C(=O)c3c(Cl)cccc3Cl)s2)cc1` [DD(33)] were, in that order, 21%, 64.7% and 8.1%.
As for `CC(C)CCOC(=O)CS(=O)(=O)c1ccc(Nc2nc(N)c(C(=O)c3c(Cl)cccc3Cl)s2)cc1` [DD(194)], the “% Inhib CDK4/D @ 0.1 μM” value is on record as 32%, the “% Inhib CDK4/D @ 1 μM” value came to 6.3% and the “% Inhib CDK4/D @ 0.03” value was −29%.
In the case of `CN(C)CCCSc1ccc(Nc2nc(N)c(C(=O)c3c(Cl)cccc3Cl)s2)cc1` [DD(10)], the inhibition at 0.1 µM was 6.6%, the inhibition at 1 µM was 54.5% and the inhibition at 0.03 µM was 2.6%.
The like results for `CC(C)OC(=O)CCS(=O)(=O)c1ccc(Nc2nc(N)c(C(=O)c3c(Cl)cccc3Cl)s2)cc1` [DD(198)] were, in that order, 9.2%, 5.1% and -24%.
Take `COC(=O)CS(=O)(=O)c1ccc(Nc2nc(N)c(C(=O)c3c(Cl)cccc3Cl)s2)cc1` [DD(226)]: the “% Inhib CDK4/D @ 0.1 μM” value was found to be 18%, the “% Inhib CDK4/D @ 1 μM” value is listed as −3.9% and the “% Inhib CDK4/D @ 0.03” value is given as −6.3%.
In the case of `CC(C)=CCS(=O)(=O)c1ccc(Nc2nc(N)c(C(=O)c3c(Cl)cccc3Cl)s2)cc1` [DD(184)], the inhibition at 0.1 µM was 9%, the “% Inhib CDK4/D @ 1 μM” value is −3.3% and the “% Inhib CDK4/D @ 0.03” value is recorded as 1.6%.
In the case of `Cc1noc(C)c1CSc1ccc(Nc2nc(N)c(C(=O)c3c(Cl)cccc3Cl)s2)cc1` [DD(2)], the inhibition at 0.1 µM was 19%, the inhibition at 1 µM was found to be 74% and the inhibition at 0.03 µM is 37%.
On to `CN1CCCC1CCSc1cccc(Nc2nc(N)c(C(=O)c3c(Cl)cccc3Cl)s2)c1` (stereo not drawn) [DD(59)], for which the inhibition at 0.1 µM was 37%, the inhibition at 1 µM is 57.4% and the inhibition at 0.03 µM came to 20%.
The like results for `Nc1nc(Nc2cccc([S+]([O-])CCCO)c2)sc1C(=O)c1c(Cl)cccc1Cl` (stereo not drawn) [DD(125)] were, in that order, 55%, 61.5% and 15%.
In the same order, the values of `CC1(C[S+]([O-])c2ccc(Nc3nc(N)c(C(=O)c4c(Cl)cccc4Cl)s3)cc2)CO1` (stereo not drawn) [DD(100)] are 33%, 63.7% and 7.1%.
As to `CCCS(=O)(=O)c1ccc(Nc2nc(N)c(C(=O)c3c(Cl)cccc3Cl)s2)cc1` [DD(225)], the “% Inhib CDK4/D @ 0.1 μM” value came out at 17%, the “% Inhib CDK4/D @ 1 μM” value was 0.6% and the “% Inhib CDK4/D @ 0.03” value is recorded as −5%.
With `CC(C)CCOC(=O)CS(=O)(=O)c1ccc(Nc2nc(N)c(C(=O)c3c(Cl)cccc3Cl)s2)cc1` [DD(191)], the “% Inhib CDK4/D @ 0.1 μM” value is recorded as 31%, the “% Inhib CDK4/D @ 1 μM” value was found to be 9.3% and the “% Inhib CDK4/D @ 0.03” value is −24%.
As for `CCOC(=O)CCSc1cccc(Nc2nc(N)c(C(=O)c3c(Cl)cccc3Cl)s2)c1` [DD(62)], the inhibition at 0.1 µM came to 27%, the inhibition at 1 µM was determined as 46.4% and the inhibition at 0.03 µM is 6.4%.
The like results for `CC(C)CCCSc1cccc(Nc2nc(N)c(C(=O)c3c(Cl)cccc3Cl)s2)c1` [DD(70)] were, in that order, 16%, 5.3% and 93%.
In the same order, the values of `COC(=O)CSc1ccc(Nc2nc(N)c(C(=O)c3c(Cl)cccc3Cl)s2)cc1` [DD(26)] are 65%, 87.5% and 9%.
The like results for `CC(C)CCOC(=O)CS(=O)(=O)c1ccc(N(C)c2nc(N)c(C(=O)c3c(Cl)cccc3Cl)s2)cc1` [DD(231)] were, in that order, 27%, 33.3% and -1.8%.
Consider `Nc1nc(Nc2ccc([S+]([O-])CCO)cc2)sc1C(=O)c1c(Cl)cccc1Cl` (stereo not drawn) [DD(109)], for which the “% Inhib CDK4/D @ 0.1 μM” value is 67%, the “% Inhib CDK4/D @ 1 μM” value came out at 73.5% and the “% Inhib CDK4/D @ 0.03” value came to 25%.

These data come from patent US20040176431A1, “Antiproliferative 2-(sulfo-phenyl)-aminothiazole derivatives and pharmaceutical compositions, and methods for their use” (Pfizer, Inc., priority 2003, published 2004).
